# Results reported in ChEMBL document CHEMBL1145720, “Daleformis, a new phytoalexin from the roots fo Dalea filiciformis: an inhibitor of endothelin converting enzyme” (J Nat Prod, 1997).
# pIC50: −log10 of the molar value. Active and inactive are the calls of the source. No cut-off for these calls is given here.
# Assay: Inhibition of ECE
Structure (SMILES),Activity,pIC50
CC(=O)Oc1ccc2c(c1)O[C@@H]1c3ccc4c(c3O[C@@H](OC(C)=O)[C@H]21)C=CC(C)(C)O4,inactive,–
CC1(C)C=Cc2c(ccc3c2O[C@@H](O)[C@@H]2c4ccc(O)cc4O[C@H]32)O1 [DALEFORMIS],–,5.05
